Values of other authors in paper PMC12216204 (Scientific Reports, 2025).

Tests used:
[1] = system: orthotopic MDA-MB-231 (TNBC) tumors
[2] = system: non-cancerous cells

Substance	proteolytic stability	accumulation in mice bearing orthotopic MDA-MB-231 (TNBC) tumors [1]	uptake by the non-cancerous cells [2]
WXEAAYQRFL [compound 18]	not proteolytically stable		
WXEAAYQkFL (head to tail) [cy18-4]	proteolytically stable	accumulated primarily at the tumor site	minimal uptake
